From patent publication US8512723B2, “Antimicrobial compositions and methods” (3M Innovative Properties Company, priority 2003, dated 2013)

Legend:
30 MRSA isolates = assay: Emergence of Resistance Test; format: cell-based, Staphylococcus aureus
Procedure: (§1) Overnight cultures of each of 30 MRSA isolates and 30 Methicillin Susceptible Stapyloccus aureus (MSSA) isolates were grown in Mueller-Hinton broth (MHB) at 35° C. in room air. Bacteria in the broth were concentrated by centrifugation for 15 minutes at 2,200 revolustions per minute (rpm). The spent broth was decanted and replaced with fresh MHB containing 0.5 μL per mL of each of three antimicrobial compositions (Examples 31(IPA), 32(IPA), and 33(IPA)) or 0.125 μg/mL of mupirocin lithium salt (Sigma Aldrich, Milwaukee, Wis.). The cultures were returned to the incubator for 18 hours. Following incubation, each culture was again centrifuged and the bacterial pellet was divided into two aliquots. One aliquot was resuspended in MHB containing fresh antimicrobial compositions at twice the previous concentrations and returned to the incubator for continued exposure.
(§2) The second aliquot was screened for MRSA and MSSA by incubation with 2 mL of MHB containing 4 μg/mL of mupirocin or 1,200 μg/mL of Examples 31(IPA) or 32(IPA) or 33 (IPA). The resistance screens were incubated overnight at 35° C. in room air. After incubation, each screen was subcultured to fresh MHB and incubated for 4 to 6 hours. Minimum inhibitory concentration (MIC) testing was performed on logarithmically growing bacteria recovered from the screen. This procedure was repeated for 8 days. After 8 days of serial exposure, each bacterial pellet was resuspended in bland MHB and incubated overnight. The MIC of each antimicrobial composition or mupirocin was determined as the MIC90 (range) before and daily during serial passage.
(§3) The IPA modified antimicrobial compositions were tested using the Emergence of Resistance Test. The results are shown at baseline (T0), after eight days (T8) and the ratio of T0 to T8 in Table 9d.

[1] = test system: 30 Methicillin Susceptible Stapyloccus aureus (MSSA) isolates; assay: Emergence of Resistance Test; format: cell-based, Staphylococcus aureus
Procedure: as §1, §2, §3

[2] = test system: MRSA #561 (clinical isolate of methicillin resistant staphylococcus); assay: Murine MRSA nasal colonization model; format: in vivo, mice; conditions: 10 μL per nare, three times daily for two days; nares cultured three days after treatment
Procedure: 1999 Infect and Immunity 67(10) 5001-5006. Prior to evaluation of the active compositions the lowest number of S. aureus required to establish nasal colonization in 70% of mice detectable 5 days after challenge and persisting at least 10 days after challenge was determined. This was using an innoculum of 10^8 cfu/nare. Mice (239 described as 25 g to 30 g Hsd:ICR) were challenged intranasally with 10^8 MRSA #561 (a clinical isolate of methicillin resistant staphylococcus obtained from Mayo Clinic, Rochester, Minn.) and arbitrarily assigned to one of five treatment regimens: mupirocin ointment, bland ointment, antimicrobial compositions of Examples 31, 32, and 33. The bland ointment consisted of petrolatum (89%), glycerin (10%) and DOSS (1%). Mice received either no treatment (none) or treatment with 10 μL per nare of warmed (42° C.) ointment (one of five) to each nare, three times daily for two days Three days after treatment, both anterior nares were swabbed and cultured for MRSA. Colonies appearing to be S. aureus were confirmed with a latex agglutination test. S. aureus was detected in 160 colonization cultures from 239 mice challenged. These mice continued to be studied. The results of the treatments are listed in Table 9e as the number of animals with no MRSA detected after treatment (successful), the percent of the animals treated successfully, the number of animals with MRSA (failure), and the percent of animals whose treatment failed.

[3] = MIC90 after eight days (T8) of serial exposure, unit assumed
[4] = MIC90 at baseline (T0), unit assumed

C/C(=C\C(=O)OCCCCCCCCC(=O)O)C[C@@H]1OC[C@H](C[C@@H]2O[C@H]2[C@@H](C)[C@H](C)O)[C@@H](O)[C@H]1O [Mupirocin, mupirocin]
MRSA Final (T8) MIC (30 MRSA isolates; [3]): 64 µg/mL
MRSA Initial (T0) MIC (30 MRSA isolates; [4]): 0.25 µg/mL
Increase of the MIC (30 MRSA isolates; eight days of serial exposure): increased dramatically
MSSA Final (T8) MIC [1, 3]: 128 µg/mL
MSSA Initial (T0) MIC [1, 4]: 0.25 µg/mL
MSSA MIC fold increase (T8/T0) ([1]; ratio of MIC at T0 and T8): 512
Number of Mice with MRSA [2]: 19
Number of Mice without MRSA [2]: 19
Percent Treated Successfully [2]: 50%
Percent Whose Treatment Failed [2]: 50%
